Assay results published in publication PMC5789640, “Depletion of Arabidopsis ACYL-COA-BINDING PROTEIN3 Affects Fatty Acid Composition in the Phloem” (Frontiers in Plant Science, 2018).

molecular target: T1, (His)6-AtACBP3 (Arabidopsis thaliana, UniProt Q9STX1); assay: isothermal titration calorimetry; assay type: binding
T1 construct: gene ACBP3; plasmid pAT223, E. coli BL21(DE3) pLysS
T1 sequence (Q9STX1 23-362): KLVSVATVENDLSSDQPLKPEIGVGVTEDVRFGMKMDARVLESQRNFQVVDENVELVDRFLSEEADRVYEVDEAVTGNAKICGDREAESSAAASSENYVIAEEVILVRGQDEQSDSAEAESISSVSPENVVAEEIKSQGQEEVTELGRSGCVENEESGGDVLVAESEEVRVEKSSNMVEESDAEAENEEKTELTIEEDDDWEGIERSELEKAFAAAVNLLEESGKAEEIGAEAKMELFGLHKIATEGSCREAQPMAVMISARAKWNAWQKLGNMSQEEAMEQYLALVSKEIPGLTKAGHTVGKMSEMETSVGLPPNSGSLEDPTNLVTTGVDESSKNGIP
Description: isothermal titration calorimetry on (His)6-AtACBP3

Point of comparison: `CCCCCCCCCCCCCCCCC(=O)SCCNC(=O)CCNC(=O)[C@H](O)C(C)(C)COP(=O)(O)OP(=O)(O)OC[C@H]1O[C@@H](n2cnc3c(N)ncnc32)[C@H](O)[C@@H]1OP(=O)(O)O` [C17:0-CoA ester], Kd 21 ± 4.7 µM. Against it:
- CCCCCCCCCCCC(=O)SCCNC(=O)CCNC(=O)[C@H](O)C(C)(C)COP(=O)(O)OP(=O)(O)OC[C@H]1O[C@@H](n2cnc3c(N)ncnc32)[C@H](O)[C@@H]1OP(=O)(O)O [C12:0-CoA ester] — within error, 33.1 ± 13 µM
- CCCCCCCCCCCCCC(=O)SCCNC(=O)CCNC(=O)[C@H](O)C(C)(C)COP(=O)(O)OP(=O)(O)OC[C@H]1O[C@@H](n2cnc3c(N)ncnc32)[C@H](O)[C@@H]1OP(=O)(O)O [C14:0-CoA ester] — 5.2-fold lower, 4 ± 0.6 µM
- CCCCCC/C=C\CCCCCCCC(=O)SCCNC(=O)CCNC(=O)[C@H](O)C(C)(C)COP(=O)(O)OP(=O)(O)OC[C@H]1O[C@@H](n2cnc3c(N)ncnc32)[C@H](O)[C@@H]1OP(=O)(O)O [C16:1-CoA ester] — 4.1-fold lower, 5.1 ± 1.9 µM
- CCCCC/C=C\C/C=C\CCCCCCCC(=O)SCCNC(=O)CCNC(=O)[C@H](O)C(C)(C)COP(=O)(O)OP(=O)(O)OC[C@H]1O[C@@H](n2cnc3c(N)ncnc32)[C@H](O)[C@@H]1OP(=O)(O)O [C18:2-CoA ester] — 1.6-fold lower, 13.4 ± 1.4 µM
- CC/C=C\C/C=C\C/C=C\CCCCCCCC(=O)SCCNC(=O)CCNC(=O)[C@H](O)C(C)(C)COP(=O)(O)OP(=O)(O)OC[C@H]1O[C@@H](n2cnc3c(N)ncnc32)[C@H](O)[C@@H]1OP(=O)(O)O [C18:3-CoA ester] — 2.4-fold lower, 8.6 ± 2 µM
